{"source": "patent US12194124B2", "about": "“Personal care compositions for treating odor causing bacteria and methods for the same” (Colgate-Palmolive Company, priority 2019, dated 2025)", "system": "C. Striatum", "experiment": "Growth inhibition assay in 96-well plate, optical density of C. Striatum", "type": "cell-based, Corynebacterium striatum", "method": "The efficacy of 2-butyl octanol for selectively promoting, inhibiting, reducing, and/or treating bacterial growth was evaluated. Particularly, the efficacy of 2-butyl octanol for selectively promoting, inhibiting, reducing, and/or treating bacterial growth of Corynebacterium and Staphylococcus was evaluated. To evaluate the efficacy, an active solution was prepared by emulsifying 2-butyl octanol with a nonionic surfactant, namely, Polysorbate 80. The active solution included the 2-butyl octanol and the Polysorbate 80 in a ratio of about 83:17. Both positive controls (including no active solution) and negative controls (including no bacteria) were also prepared.\nA 96-well plate was utilized to evaluate the growth of the respective bacteria at varying dilutions. Each of the wells of a 96-well plate was aseptically filled with about 100 μL of Tryptic Soy Broth (TSB). In the first well of each row, about 100 μL of either the active solution (including the 2-butyl octanol and Polysorbate 80) or the desired solvent for the respective positive and negative controls was added to thereby provide a total of about 200 μL in the first well of the each respective row. A multi-channel pipette was then utilized to prepare a two-fold dilution in each column. Specifically, a multi-channel pipette set to about 100 μL was utilized to mix and transfer about 100 μL of the 200 μL from the wells of the first column to the respective wells of a subsequent column. This was repeated for each of the remaining eleven columns. About 100 μL of the twelfth column was removed, thereby leaving about 100 μL in each of the 96 wells. […] Specifically, a phosphate buffered saline (PBS) was utilized for the negative control. About 100 μL of the respective bacteria adjusted to 0.1 optical density (OD) bacteria was added to all other wells. The well plate was then incubated overnight at about 37° C. in a growth inhibition assay machine. Measurements were taken at about one hour increments."}
{"smiles": "CCCCCCC(CO)CCCC", "note": "(stereo not shown) [2-butyl octanol, 2-butyl-1-octanol]", "values": [{"measurement": "Measured Optical Density of C. Striatum", "setting": "0.02% 2-Butyl Octanol, 1 Hour", "value": 0}, {"measurement": "Measured Optical Density of C. Striatum", "setting": "0.02% 2-Butyl Octanol, 2 Hour", "value": 0.086}, {"measurement": "Measured Optical Density of C. Striatum", "setting": "0.02% 2-Butyl Octanol, 3 Hour", "value": 0.13}, {"measurement": "Measured Optical Density of C. Striatum", "setting": "0.02% 2-Butyl Octanol, 4 Hour", "value": 0.139}, {"measurement": "Measured Optical Density of C. Striatum", "setting": "0.02% 2-Butyl Octanol, 5 Hour", "value": 0.143}, {"measurement": "Measured Optical Density of C. Striatum", "setting": "0.02% 2-Butyl Octanol, 6 Hour", "value": 0.144}, {"measurement": "Measured Optical Density of C. Striatum", "setting": "0.02% 2-Butyl Octanol, 7 Hour", "value": 0.144}, {"measurement": "Measured Optical Density of C. Striatum", "setting": "0.02% 2-Butyl Octanol, 8 Hour", "value": 0.144}, {"measurement": "Measured Optical Density of C. Striatum", "setting": "0.02% 2-Butyl Octanol, 9 Hour", "value": 0.146}, {"measurement": "Measured Optical Density of C. Striatum", "setting": "0.02% 2-Butyl Octanol, 10 Hour", "value": 0.149}, {"measurement": "Measured Optical Density of C. Striatum", "setting": "0.02% 2-Butyl Octanol, 11 Hour", "value": 0.155}, {"measurement": "Measured Optical Density of C. Striatum", "setting": "0.02% 2-Butyl Octanol, 12 Hour", "value": 0.163}, {"measurement": "Measured Optical Density of C. Striatum", "setting": "0.02% 2-Butyl Octanol, 13 Hour", "value": 0.178}, {"measurement": "Measured Optical Density of C. Striatum", "setting": "0.02% 2-Butyl Octanol, 14 Hour", "value": 0.21}, {"measurement": "Measured Optical Density of C. Striatum", "setting": "0.02% 2-Butyl Octanol, 15 Hour", "value": 0.254}, {"measurement": "Measured Optical Density of C. Striatum", "setting": "0.02% 2-Butyl Octanol, 16 Hour", "value": 0.322}, {"measurement": "Measured Optical Density of C. Striatum", "setting": "0.02% 2-Butyl Octanol, 17 Hour", "value": 0.404}, {"measurement": "Measured Optical Density of C. Striatum", "setting": "0.02% 2-Butyl Octanol, 18 Hour", "value": 0.52}, {"measurement": "Measured Optical Density of C. Striatum", "setting": "0.04% 2-Butyl Octanol, 1 Hour", "value": 0.006}, {"measurement": "Measured Optical Density of C. Striatum", "setting": "0.04% 2-Butyl Octanol, 2 Hour", "value": 0.058}, {"measurement": "Measured Optical Density of C. Striatum", "setting": "0.04% 2-Butyl Octanol, 3 Hour", "value": 0.088}, {"measurement": "Measured Optical Density of C. Striatum", "setting": "0.04% 2-Butyl Octanol, 4 Hour", "value": 0.1}, {"measurement": "Measured Optical Density of C. Striatum", "setting": "0.04% 2-Butyl Octanol, 5 Hour", "value": 0.111}, {"measurement": "Measured Optical Density of C. Striatum", "setting": "0.04% 2-Butyl Octanol, 6 Hour", "value": 0.117}, {"measurement": "Measured Optical Density of C. Striatum", "setting": "0.04% 2-Butyl Octanol, 7 Hour", "value": 0.121}, {"measurement": "Measured Optical Density of C. Striatum", "setting": "0.04% 2-Butyl Octanol, 8 Hour", "value": 0.124}, {"measurement": "Measured Optical Density of C. Striatum", "setting": "0.04% 2-Butyl Octanol, 9 Hour", "value": 0.127}, {"measurement": "Measured Optical Density of C. Striatum", "setting": "0.04% 2-Butyl Octanol, 10 Hour", "value": 0.13}, {"measurement": "Measured Optical Density of C. Striatum", "setting": "0.04% 2-Butyl Octanol, 11 Hour", "value": 0.133}, {"measurement": "Measured Optical Density of C. Striatum", "setting": "0.04% 2-Butyl Octanol, 12 Hour", "value": 0.136}, {"measurement": "Measured Optical Density of C. Striatum", "setting": "0.04% 2-Butyl Octanol, 13 Hour", "value": 0.141}, {"measurement": "Measured Optical Density of C. Striatum", "setting": "0.04% 2-Butyl Octanol, 14 Hour", "value": 0.149}, {"measurement": "Measured Optical Density of C. Striatum", "setting": "0.04% 2-Butyl Octanol, 15 Hour", "value": 0.166}, {"measurement": "Measured Optical Density of C. Striatum", "setting": "0.04% 2-Butyl Octanol, 16 Hour", "value": 0.192}, {"measurement": "Measured Optical Density of C. Striatum", "setting": "0.04% 2-Butyl Octanol, 17 Hour", "value": 0.234}, {"measurement": "Measured Optical Density of C. Striatum", "setting": "0.04% 2-Butyl Octanol, 18 Hour", "value": 0.298}, {"measurement": "Measured Optical Density of C. Striatum", "setting": "0.08% 2-Butyl Octanol, 1 Hour", "value": 0.014}, {"measurement": "Measured Optical Density of C. Striatum", "setting": "0.08% 2-Butyl Octanol, 2 Hour", "value": 0.07}, {"measurement": "Measured Optical Density of C. Striatum", "setting": "0.08% 2-Butyl Octanol, 3 Hour", "value": 0.108}, {"measurement": "Measured Optical Density of C. Striatum", "setting": "0.08% 2-Butyl Octanol, 4 Hour", "value": 0.118}, {"measurement": "Measured Optical Density of C. Striatum", "setting": "0.08% 2-Butyl Octanol, 5 Hour", "value": 0.124}, {"measurement": "Measured Optical Density of C. Striatum", "setting": "0.08% 2-Butyl Octanol, 6 Hour", "value": 0.127}, {"measurement": "Measured Optical Density of C. Striatum", "setting": "0.08% 2-Butyl Octanol, 7 Hour", "value": 0.129}, {"measurement": "Measured Optical Density of C. Striatum", "setting": "0.08% 2-Butyl Octanol, 8 Hour", "value": 0.131}, {"measurement": "Measured Optical Density of C. Striatum", "setting": "0.08% 2-Butyl Octanol, 9 Hour", "value": 0.132}, {"measurement": "Measured Optical Density of C. Striatum", "setting": "0.08% 2-Butyl Octanol, 10 Hour", "value": 0.133}, {"measurement": "Measured Optical Density of C. Striatum", "setting": "0.08% 2-Butyl Octanol, 11 Hour", "value": 0.133}, {"measurement": "Measured Optical Density of C. Striatum", "setting": "0.08% 2-Butyl Octanol, 12 Hour", "value": 0.134}, {"measurement": "Measured Optical Density of C. Striatum", "setting": "0.08% 2-Butyl Octanol, 13 Hour", "value": 0.137}, {"measurement": "Measured Optical Density of C. Striatum", "setting": "0.08% 2-Butyl Octanol, 14 Hour", "value": 0.141}, {"measurement": "Measured Optical Density of C. Striatum", "setting": "0.08% 2-Butyl Octanol, 15 Hour", "value": 0.151}, {"measurement": "Measured Optical Density of C. Striatum", "setting": "0.08% 2-Butyl Octanol, 16 Hour", "value": 0.168}, {"measurement": "Measured Optical Density of C. Striatum", "setting": "0.08% 2-Butyl Octanol, 17 Hour", "value": 0.194}, {"measurement": "Measured Optical Density of C. Striatum", "setting": "0.08% 2-Butyl Octanol, 18 Hour", "value": 0.23}, {"measurement": "Measured Optical Density of C. Striatum", "setting": "0.16% 2-Butyl Octanol, 1 Hour", "value": 0.038}, {"measurement": "Measured Optical Density of C. Striatum", "setting": "0.16% 2-Butyl Octanol, 2 Hour", "value": 0.037}, {"measurement": "Measured Optical Density of C. Striatum", "setting": "0.16% 2-Butyl Octanol, 3 Hour", "value": 0.036}, {"measurement": "Measured Optical Density of C. Striatum", "setting": "0.16% 2-Butyl Octanol, 4 Hour", "value": 0.036}, {"measurement": "Measured Optical Density of C. Striatum", "setting": "0.16% 2-Butyl Octanol, 5 Hour", "value": 0.036}, {"measurement": "Measured Optical Density of C. Striatum", "setting": "0.16% 2-Butyl Octanol, 6 Hour", "value": 0.036}, {"measurement": "Measured Optical Density of C. Striatum", "setting": "0.16% 2-Butyl Octanol, 7 Hour", "value": 0.035}, {"measurement": "Measured Optical Density of C. Striatum", "setting": "0.16% 2-Butyl Octanol, 8 Hour", "value": 0.036}, {"measurement": "Measured Optical Density of C. Striatum", "setting": "0.16% 2-Butyl Octanol, 9 Hour", "value": 0.036}, {"measurement": "Measured Optical Density of C. Striatum", "setting": "0.16% 2-Butyl Octanol, 10 Hour", "value": 0.037}, {"measurement": "Measured Optical Density of C. Striatum", "setting": "0.16% 2-Butyl Octanol, 11 Hour", "value": 0.037}, {"measurement": "Measured Optical Density of C. Striatum", "setting": "0.16% 2-Butyl Octanol, 12 Hour", "value": 0.037}, {"measurement": "Measured Optical Density of C. Striatum", "setting": "0.16% 2-Butyl Octanol, 13 Hour", "value": 0.038}, {"measurement": "Measured Optical Density of C. Striatum", "setting": "0.16% 2-Butyl Octanol, 14 Hour", "value": 0.038}, {"measurement": "Measured Optical Density of C. Striatum", "setting": "0.16% 2-Butyl Octanol, 15 Hour", "value": 0.039}, {"measurement": "Measured Optical Density of C. Striatum", "setting": "0.16% 2-Butyl Octanol, 16 Hour", "value": 0.04}, {"measurement": "Measured Optical Density of C. Striatum", "setting": "0.16% 2-Butyl Octanol, 17 Hour", "value": 0.041}, {"measurement": "Measured Optical Density of C. Striatum", "setting": "0.16% 2-Butyl Octanol, 18 Hour", "value": 0.041}, {"measurement": "growth of C. stratium", "setting": "2-butyl octanol at least about 1.6% or greater (Table 3)", "value": "completely inhibited"}]}
